Target: Disintegrin and metalloproteinase domain-containing protein 17 (Homo sapiens, UniProt P78536)
Assay: Inhibition of TACE (unknown origin) using fluorogenic LAQAVRSSSR peptide as a substrate by fluorometric assay

Disintegrin and metalloproteinase domain-containing protein 17, sequence (P78536 whole entry, the tested form may be a part): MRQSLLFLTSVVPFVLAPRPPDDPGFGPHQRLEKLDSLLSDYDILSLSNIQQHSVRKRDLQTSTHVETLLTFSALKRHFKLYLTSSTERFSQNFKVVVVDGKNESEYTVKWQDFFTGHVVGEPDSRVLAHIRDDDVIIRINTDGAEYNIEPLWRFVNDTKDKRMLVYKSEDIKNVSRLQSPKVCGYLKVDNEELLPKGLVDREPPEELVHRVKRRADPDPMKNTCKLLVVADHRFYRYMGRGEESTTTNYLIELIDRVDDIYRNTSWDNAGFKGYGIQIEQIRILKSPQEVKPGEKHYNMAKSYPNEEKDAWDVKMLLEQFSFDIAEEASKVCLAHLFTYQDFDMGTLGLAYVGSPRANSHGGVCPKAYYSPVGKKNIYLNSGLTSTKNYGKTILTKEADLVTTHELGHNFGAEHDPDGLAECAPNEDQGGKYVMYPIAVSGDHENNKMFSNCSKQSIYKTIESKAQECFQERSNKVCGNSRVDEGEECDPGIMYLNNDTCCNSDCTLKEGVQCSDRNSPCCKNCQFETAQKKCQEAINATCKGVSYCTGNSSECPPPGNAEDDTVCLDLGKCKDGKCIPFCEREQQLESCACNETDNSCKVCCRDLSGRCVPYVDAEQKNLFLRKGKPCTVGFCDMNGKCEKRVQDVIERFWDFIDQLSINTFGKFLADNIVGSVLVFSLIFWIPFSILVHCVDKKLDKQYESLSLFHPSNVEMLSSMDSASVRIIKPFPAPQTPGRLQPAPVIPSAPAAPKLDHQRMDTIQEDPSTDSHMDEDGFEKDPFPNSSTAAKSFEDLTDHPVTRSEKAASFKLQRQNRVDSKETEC

IC50	Structure (SMILES)
4 nM	CC#CCOc1ccc(S(=O)(=O)NC(C)C(=O)NO)cc1 (configuration not stated)
0.3 nM	CNC(=O)[C@H](Cc1cccc2c1CCCC2)NC(=O)[C@H](CC(C)C)[C@H](C)C(=O)NO

From ChEMBL document CHEMBL3045769, “Strategy for generation of new TACE inhibitors: pharmacophore and counter pharmacophore modeling to remove non-selective hits” (Med Chem Res, 2011)
